Measured values taken from patent US20080319078A1, “Triphenylethylene Compounds Useful as Selective Estrogen Receptor Modulators” (priority 2005, published 2008).

Work on `CCC(=C(c1ccc(O)cc1)c1ccc(O)cc1)c1ccc(OCC(=O)O)c(OC)c1` [Example 4, {[4-[1-Ethyl-2,2-bis(4-hydroxyphenyl)ethenyl]-2-(methyloxy)phenyl]oxy}acetic acid] yielded a melting point of 253 to 254 °C.
